Read-outs that look alike come from different tables or passages of the source.
Columns and labels:
MV-4-11 = experiment: Cell proliferation assay (MTS/PMS); type: cell-based; conditions: Homo sapiens, MV4-11
SHP2 = molecular target: T1, SHP2 (Homo sapiens, UniProt Q06124); experiment: biochemical; conditions: read-out: SHP2 inhibition (%)@0.1 μM;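 further: compounds preincubated 30 min at room temperature in the assay mixture, activity referenced to a 0.5% (v/v) DMSO control taken as 100%, run in triplicate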
T1 sequence (Q06124 1-593): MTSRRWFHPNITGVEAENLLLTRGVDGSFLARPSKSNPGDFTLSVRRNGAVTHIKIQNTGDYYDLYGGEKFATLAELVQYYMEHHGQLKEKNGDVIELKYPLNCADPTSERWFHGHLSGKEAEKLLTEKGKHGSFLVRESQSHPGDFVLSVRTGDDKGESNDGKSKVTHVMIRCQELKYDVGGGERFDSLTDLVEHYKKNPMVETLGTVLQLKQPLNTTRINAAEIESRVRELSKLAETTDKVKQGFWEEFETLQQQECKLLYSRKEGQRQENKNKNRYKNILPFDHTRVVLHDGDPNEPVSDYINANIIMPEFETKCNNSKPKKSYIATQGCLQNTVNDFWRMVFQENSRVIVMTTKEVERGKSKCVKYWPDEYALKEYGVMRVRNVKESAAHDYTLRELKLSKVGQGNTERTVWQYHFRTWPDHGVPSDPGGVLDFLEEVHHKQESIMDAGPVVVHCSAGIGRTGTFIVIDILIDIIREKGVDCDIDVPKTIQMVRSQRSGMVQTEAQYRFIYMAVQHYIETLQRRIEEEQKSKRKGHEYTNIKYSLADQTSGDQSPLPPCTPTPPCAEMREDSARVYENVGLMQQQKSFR

[1] = MV-4-11 cell proliferation, MTS/PMS readout at day 8, compounds added 24 hours after plating, read-out: IC50

Row | SMILES | IC50 (MV-4-11; [1]) [nM] | inhibition at 0.1 µM (SHP2) [%] | IC50 (MV-4-11) [nM]
1 | COc1cccc2c1CC1(CCN(c3cnc(Sc4ccnc(N)c4Cl)c(N)n3)CC1)[C@@H]2N [Example 14, (S)-1′-(6-amino-5-((2-amino-3-chloropyridin-4-yl)thio)pyrazin-2-yl)-4-methoxy-1,3-dihydrospiro[2,4′-piperidin]-1-amine] | 6 | 82 | 
2 | Nc1nc(N2CCC3(CC2)Oc2ccccc2[C@H]3N)cnc1Sc1ccnc(N)c1Cl [Example 45, (R)-1′-(6-amino-5-((2-amino-3-chloropyridin-4-yl)thio)pyrazin-2-yl)-3H-spiro[benzofuran-2,4′-piperidin]-3-amine] |  | 68 | 2.5
3 | Nc1nccc(Sc2cnc(N3CCC4(CC3)Oc3ccccc3[C@H]4N)cn2)c1Cl [Example 56, (R)-1′-(5-((2-amino-3-chloropyridin-4-yl)thio)pyrazin-2-yl)-3H-spiro[benzofuran-2,4′-piperidin]-3-amine] | 10.4 | 71 | 
4 | Nc1nc(N2CCC3(CC2)Cc2nc4ccccc4cc2[C@H]3N)cnc1Sc1ccnc(N)c1Cl [Example 64, (S)-1′-(6-amino-5-((2-amino-3-chloropyridin-4-yl)thio)pyrazin-2-yl)-1,3-dihydrospiro[cyclopenta [b]quinoline-2, 4′-piperidin]-1-amine] | 8.1 | 66 | 
5 | Nc1nccc(Sc2cnc(N3CCC4(CC3)Cc3nc(Cl)sc3[C@H]4N)cn2)c1Cl [Example 68, (S)-1′-(5-((2-amino-3-chloropyridin-4-yl)thio)pyrazin-2-yl)-2-chloro-4,6-dihydrospiro[cyclopenta [d]thiazole-5,4′-piperidin]-amine] | 4.9 | 82 | 
6 | Nc1nc(N2CCC3(CC2)Cc2nc(Cl)sc2[C@H]3N)cnc1Sc1ccnc(N)c1Cl [Example 69, (S)-1′-(6-amino-5-((2-amino-3-chloropyridin-4-yl)thio)pyrazin-2-yl)-2-chloro-4,6-dihydro-spiro[cyclopenta[d]thiazole-5,4′-piperidin]-6-amine] | 4 | 89 | 
7 | Nc1nccc(Sc2cnc(N3CCC4(CC3)Nc3ccccc3[C@H]4N)cn2)c1Cl [Example 71, (R)-1′-(5-((2-amino-3-chloropyridin-4-yl)thio)pyrazin-2-yl)spiro[indoline-2, 4′-piperidin]-3-amine] | 13 | 86 | 
8 | Nc1nc(N2CCC3(CC2)Cc2ncccc2[C@H]3N)cnc1Sc1ccnc2ccccc12 [Example 83, (S)-1′-(6-amino-5-(quinolin-4-yl-thio)pyrazin-2-yl)-5,7-dihydrospiro [cyclopenta[b]pyridine-6,4′-piperidin]-5-amine] | 16 | 91 | 
9 | Nc1nc(N2CCC3(CC2)Cc2ncccc2[C@H]3N)cnc1Sc1ccnc(N)c1F [Example 91, (S)-1′-(6-amino-5-((2-amino-3-fluoropyridin-4-yl)thio)pyrazin-2-yl)-5,7-dihydrospiro [cyclopenta [b]pyridine-6,4′-piperidin]-5-amine] | 12 | 88 | 
10 | Nc1nccc(Sc2cnc(N3CCC4(CC3)Cc3ncccc3[C@H]4N)cn2)c1F [Example 92, (S)-1′-(5-((2-amino-3-fluoropyridin-4-yl)thio)pyrazin-2-yl)-5,7-dihydrospiro[cyclopenta [b]pyridine-6,4′-piperidin]-5-amine] | 9 | 92 | 
11 | Nc1nc(N2CCC3(CC2)Cc2ncccc2[C@H]3N)cnc1Sc1ccnc(Cl)c1Cl [Example 105, (S)-1′-(6-amino-5-((2,3-dichloro-pyridin-4-yl)thio)pyrazin-2-yl)-5,7-dihydrospiro[cyclo-penta[b]pyridine-6,4′-piperidin]-5-amine] | 11 |  | 
12 | Nc1nccc(Sc2cnc(N3CCC4(CC3)c3ccccc3CC4N)cn2)c1Cl (centres unmarked) [Example 132, 1′-(5-((2-amino-3-chloropyridin-4-yl)thio)pyrazin-2-yl)-2,3-dihydrospiro[indene-1,4′-piperidin]-2-amine] |  | 78 | 
13 | N[C@@H]1c2ccccc2CC12CCN(c1cnc(Sc3ccnc(O)c3Cl)cn1)CC2 [Example 133, (S)-4-((5-(1-amino-1,3-dihydrospiro[indene-2,4′-piperidin]-1′-yl)pyrazin-2-yl)thio)-3-chloro pyridin-2-ol] |  | 76 | 
14 | Nc1nc(N2CCC3(CC2)Cc2ccccc2[C@H]3N)cnc1Sc1ccnc(O)c1Cl [Example 134, (S)-4-((3-amino-5-(1-amino-1,3-dihydrospiro[indene-2,4′-piperidin]-1′-yl)pyrazin-2-yl)thio)-3-chloropyridin-2-ol] |  | 78 | 
15 | N[C@@H]1c2cccnc2CC12CCN(c1cnc(Sc3ccnc(O)c3Cl)cn1)CC2 [Example 135, (S)-4-((5-(5-amino-5,7-dihydrospiro [cyclopenta[b]pyridine-6,4′-piperidin]-1′-yl)pyrazin-2-yl)thio)-3-chloropyridin-2-ol] |  | 86 | 
16 | Nc1nc(N2CCC3(CC2)Cc2ncccc2[C@H]3N)cnc1Sc1ccnc(O)c1Cl [Example 136, (S)-4-((3-amino-5-(5-amino-5,7-dihydrospiro[cyclopenta[b]pyridine-6,4′-piperidin]-1′-yl)pyrazin-2-yl)thio)-3-chloropyridin-2-ol] |  | 83 | 
17 | Nc1nc(N2CCC3(CC2)Cc2c(O)cccc2[C@H]3N)cnc1Sc1ccnc(N)c1Cl [Example 138, (S)-1-amino-1′-(6-amino-5-((2-amino-3-chloropyridin-4-yl)thio)pyrazin-2-yl)-1,3-dihydrospiro[indene-2,4′-piperidin]-4-ol] |  | 82 | 
18 | Nc1nc(N2CCC3(CC2)Cn2ccc(=O)cc2C3N)cnc1Sc1ccnc(N)c1Cl (centres unmarked) [Example 140, 1-amino-1′-(6-amino-5-((2-amino-3-chloropyridin-4-yl)thio)pyrazin-2-yl)-3H-spiro[indolizine-2,4′-piperidin]-7(1H)-one] |  | 14 | 
19 | Nc1nc(N2CCC3(CC2)Cn2c(cccc2=O)C3N)cnc1Sc1ccnc(N)c1Cl (centres unmarked) [Example 141, 1-amino-1′-(6-amino-5-((2-amino-3-chloropyridin-4-yl)thio)pyrazin-2-yl)-3H-spiro[indolizine-2,4′-piperidin]-5(1H)-one] |  | 41 | 
20 | N=C1c2ccccc2CC12CCN(c1cnc(Sc3ccnc(N)c3Cl)c(N)n1)CC2 [Example 142, 3-((2-amino-3-chloropyridin-4-yl)thio)-6-(1-imino-1,3-dihydrospiro[indene-2,4′-piperidin]-1′-yl)pyrazin-2-amine] |  | 17 | 
21 | COc1ccc2c(c1)CC1(CCN(c3cnc(Sc4ccnc(N)c4Cl)c(N)n3)CC1)C2=N [Example 143, 3-((2-amino-3-chloropyridin-4-yl)thio)-6-(1-imino-5-methoxy-1,3-dihydro-spiro[indene-2,4′-piperidin]-1′-yl)pyrazin-2-amine] |  | 72 | 
22 | N=C1c2csc(Br)c2CC12CCN(c1cnc(Sc3ccnc(N)c3Cl)c(N)n1)CC2 [Example 145, 3-((2-amino-3-chloropyridin-4-yl)thio)-6-(1-bromo-4-imino-4H,6H-spiro [cyclopenta[c]thiophene-5,4′-piperidin]-1′-yl)pyrazin-2-amine] |  | 79 | 
23 | COc1cccc2c1C(N)C1(CCN(c3cnc(Sc4ccnc(N)c4Cl)c(N)n3)CC1)C2 (centres unmarked) [Example 148, 1′-(6-amino-5-((2-amino-3-chloropyridin-4-yl)thio)pyrazin-2-yl)-7-methoxy-1,3-dihydrospiro[indene-2,4′-piperidin]-1-amine] |  | 72 | 
24 | Nc1nc(N2CCC3(CC2)Cc2ccccc2/C3=N\O)cnc1Sc1ccnc(N)c1Cl [Example 149, (Z)-1′-(6-amino-5-((2-amino-3-chloropyridin-4-yl)thio)pyrazin-2-yl) spiro[indene-2,4′-piperidin]-1(3H)-one oxime] |  | 28 | 
25 | Nc1nccc(Sc2cnc(N3CCC4(CC3)Cc3scnc3C4N)cn2)c1Cl (centres unmarked) [Example 154, 1′-(5-((2-amino-3-chloropyridin-4-yl)thio)pyrazin-2-yl)-4,6-dihydrospiro[cyclopenta[d]thiazole-5,4′-piperidin]-4-amine] |  | 82 | 
26 | Nc1nc(N2CCC3(CC2)Cc2ccccc2[C@H]3N)cnc1Sc1cccc2[nH]cc(F)c12 [Example 157, (S)-1′-(6-amino-5-((3-fluoro-1H-indol-4-yl)thio)pyrazin-2-yl)-1,3-dihydrospiro[indene-2,4′-piperidin]-1-amine] |  | 78 | 
27 | CC(=O)c1ccc2c(c1)[C@@H](N)C1(CCN(c3cnc(Sc4ccnc(N)c4Cl)c(N)n3)CC1)C2 [Example 158, (S)-1-(1-amino-1′-(6-amino-5-((2-amino-3-chloropyridin-4-yl)thio)pyrazin-2-yl)-1,3-dihydrospiro[indene-2,4′-piperidin]-6-yl)ethan-1-one] |  | 90 | 
28 | CC(=O)c1cccc2c1CC1(CCN(c3cnc(Sc4ccnc(N)c4Cl)c(N)n3)CC1)[C@@H]2N [Example 159, (S)-1-(1-amino-1′-(6-amino-5-((2-amino-3-chloropyridin-4-yl)thio)pyrazin-2-yl)-1,3-dihydrospiro[indene-2,4′-piperidin]-4-yl)ethan-1-one] |  | 88 | 
